PubChem BioAssay AID256 (DTP/NCI, 2004)
Where “and” joins values, the source holds several entries; their conditions need not be identical. Identical values can stand only once. Toxic doses and inconclusive results are not listed.

System: CD2F1 mice, L1210 leukemia ip, survival T/C
Test: NCI In Vivo Anticancer Drug Screen. Data for tumor model L1210 Leukemia (intraperitoneal) in CD2F1 (CDF1) mice
Conditions: endpoint: mean survival time, higher = longer survival
In short: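 Read-out first: treated-group measurement over vehicle-control measurement, expressed as a ratio. Animals bore a transplanted tumor line and were dosed with compound or vehicle.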

O=C1c2c(O)ccc(O)c2C(=O)c2c(NCCNCCO)ccc(NCCNCCO)c21
T/C (dose: 0.13 mg/kg/injection, schedule: Q01DX005 (iv), vehicle: acid diluted with saline): 104 % of control | T/C (dose: 0.13 mg/kg/injection, schedule: Q01DX005 (iv), vehicle: clinical formulation): 109 % of control | T/C (dose: 0.13 mg/kg/injection, schedule: Q01DX009 (ip), vehicle: clinical formulation): 276 % of control and 165 % of control | T/C (dose: 0.19 mg/kg/injection, schedule: Q01DX009 (ip), vehicle: saline): 161 % of control and 195 % of control | T/C (dose: 0.25 mg/kg/injection, schedule: Q01DX005 (iv), vehicle: acid diluted with saline): 110 % of control | T/C (dose: 0.25 mg/kg/injection, schedule: Q01DX005 (iv), vehicle: saline): 117 % of control | T/C (dose: 0.25 mg/kg/injection, schedule: Q01DX009 (ip), vehicle: acid diluted with saline): 170 % of control and 196 % of control | T/C (dose: 0.25 mg/kg/injection, schedule: Q01DX009 (ip), vehicle: clinical formulation): 404 % of control and 223 % of control | T/C (dose: 0.38 mg/kg/injection, schedule: Q01DX009 (ip), vehicle: saline): 182 % of control and 193 % of control | T/C (dose: 0.5 mg/kg/injection, schedule: Q01DX005 (iv), vehicle: acid diluted with saline): 153 % of control | T/C (dose: 0.5 mg/kg/injection, schedule: Q01DX005 (iv), vehicle: clinical formulation): 163 % of control and 159 % of control | T/C (dose: 0.5 mg/kg/injection, schedule: Q01DX005 (iv), vehicle: saline): 152 % of control | T/C (dose: 0.5 mg/kg/injection, schedule: Q01DX005 (oral), vehicle: acid diluted with saline): 102 % of control and 107 % of control | T/C (dose: 0.5 mg/kg/injection, schedule: Q01DX009 (ip), vehicle: acid diluted with saline): 150 % of control and 171 % of control and 328 % of control | T/C (dose: 0.5 mg/kg/injection, schedule: Q01DX009 (ip), vehicle: clinical formulation): 228 % of control | T/C (dose: 1.0 mg/kg/injection, schedule: Q01DX005 (ip), vehicle: acid diluted with saline): 163 % of control | T/C (dose: 1.0 mg/kg/injection, schedule: Q01DX005 (iv), vehicle: acid diluted with saline): 157 % of control and 170 % of control | T/C (dose: 1.0 mg/kg/injection, schedule: Q01DX005 (iv), vehicle: clinical formulation): 324 % of control | T/C (dose: 1.0 mg/kg/injection, schedule: Q01DX005 (iv), vehicle: saline): 180 % of control | T/C (dose: 1.0 mg/kg/injection, schedule: Q01DX005 (oral), vehicle: acid diluted with saline): 101 % of control | T/C (dose: 1.0 mg/kg/injection, schedule: Q01DX009 (ip), vehicle: acid diluted with saline): 168 % of control and 274 % of control and 307 % of control | T/C (dose: 1.0 mg/kg/injection, schedule: Q01DX009 (ip), vehicle: clinical formulation): 494 % of control | T/C (dose: 1.0 mg/kg/injection, schedule: Q04DX003 (iv), vehicle: acid diluted with saline): 151 % of control | T/C (dose: 2.0 mg/kg/injection, schedule: Q01DX005 (ip), vehicle: acid diluted with saline): 198 % of control | T/C (dose: 2.0 mg/kg/injection, schedule: Q01DX005 (iv), vehicle: acid diluted with saline): 168 % of control and 409 % of control | T/C (dose: 2.0 mg/kg/injection, schedule: Q01DX005 (iv), vehicle: clinical formulation): 171 % of control | T/C (dose: 2.0 mg/kg/injection, schedule: Q01DX005 (iv), vehicle: saline): 173 % of control | T/C (dose: 2.0 mg/kg/injection, schedule: Q01DX005 (oral), vehicle: acid diluted with saline): 102 % of control and 109 % of control | T/C (dose: 2.0 mg/kg/injection, schedule: Q01DX009 (ip), vehicle: acid diluted with saline): 246 % of control and 354 % of control | T/C (dose: 2.0 mg/kg/injection, schedule: Q01DX009 (ip), vehicle: clinical formulation): 190 % of control | T/C (dose: 2.0 mg/kg/injection, schedule: Q04DX003 (ip), vehicle: acid diluted with saline): 167 % of control and 223 % of control | T/C (dose: 2.0 mg/kg/injection, schedule: Q04DX003 (iv), vehicle: acid diluted with saline): 189 % of control
